From ChEMBL document CHEMBL3784924, “Identification of a 5-[3-phenyl-(2-cyclic-ether)-methylether]-4-aminopyrrolo[2,3-d]pyrimidine series of IGF-1R inhibitors” (Bioorg Med Chem Lett, 2016)

Legend:
[1] = target: Insulin-like growth factor 1 receptor (Homo sapiens, UniProt P08069); test: Inhibition of IGF-1 receptor (unknown origin)
[2] = target: Phosphatidylinositol 4,5-bisphosphate 3-kinase catalytic subunit beta isoform (Homo sapiens, UniProt P42338); test: Inhibition of PI3K-beta (unknown origin)
[3] = target: Voltage-gated inwardly rectifying potassium channel KCNH2 (Homo sapiens, UniProt Q12809); test: Inhibition of human ERG by dofetilide binding assay
[4] = target: Epidermal growth factor receptor (Homo sapiens, UniProt P00533); test: Inhibition of Her1 (unknown origin)
[5] = target: Phosphatidylinositol 4,5-bisphosphate 3-kinase catalytic subunit alpha isoform (Homo sapiens, UniProt P42336); test: Inhibition of PI3K-alpha (unknown origin)
[6] = target: Tyrosine-protein kinase JAK1 (Homo sapiens, UniProt P23458); test: Inhibition of Jak1 (unknown origin)
Liver microsome [7] = test: Drug metabolism in human liver microsomes assessed as 3-(4-amino-7-((cis)-3-(azetidin-1-ylmethyl)cyclobutyl)-7H-pyrrolo[2,3-d]pyrimidin-5-yl)phenol formation by LC-MS/MS analysis; type: ADME
Liver microsome [8] = test: Drug level in human liver microsomes treated with NVP-AEW541 by LC-MS/MS analysis; type: ADME
Cytochrome P450 3A4 = Cytochrome P450 3A4 (Homo sapiens, UniProt P08684); test: Effect on human CYP3A4 at 10 uM; type: ADME
[9] = target: Vascular endothelial growth factor receptor 2 (Homo sapiens, UniProt P35968); test: Inhibition of KDR (unknown origin)
[10] = target: Proto-oncogene tyrosine-protein kinase receptor Ret (Homo sapiens, UniProt P07949); test: Inhibition of Ret (unknown origin)
Cytochrome P450 2D6 = Cytochrome P450 2D6 (Homo sapiens, UniProt P10635); test: Effect on human CYP2D6 at 10 uM; type: ADME
[11] = Permeability of compound at >= pH 7 by PAMPA assay; type: ADME
[12] = Solubility of compound in water; type: physicochemical; settings: buffer
Ephrin type-B receptor 4 = target: T1, Ephrin type-B receptor 4 (Homo sapiens, UniProt P54760); test: Inhibition of EphB4 receptor (unknown origin)
T1 sequence (P54760 whole entry): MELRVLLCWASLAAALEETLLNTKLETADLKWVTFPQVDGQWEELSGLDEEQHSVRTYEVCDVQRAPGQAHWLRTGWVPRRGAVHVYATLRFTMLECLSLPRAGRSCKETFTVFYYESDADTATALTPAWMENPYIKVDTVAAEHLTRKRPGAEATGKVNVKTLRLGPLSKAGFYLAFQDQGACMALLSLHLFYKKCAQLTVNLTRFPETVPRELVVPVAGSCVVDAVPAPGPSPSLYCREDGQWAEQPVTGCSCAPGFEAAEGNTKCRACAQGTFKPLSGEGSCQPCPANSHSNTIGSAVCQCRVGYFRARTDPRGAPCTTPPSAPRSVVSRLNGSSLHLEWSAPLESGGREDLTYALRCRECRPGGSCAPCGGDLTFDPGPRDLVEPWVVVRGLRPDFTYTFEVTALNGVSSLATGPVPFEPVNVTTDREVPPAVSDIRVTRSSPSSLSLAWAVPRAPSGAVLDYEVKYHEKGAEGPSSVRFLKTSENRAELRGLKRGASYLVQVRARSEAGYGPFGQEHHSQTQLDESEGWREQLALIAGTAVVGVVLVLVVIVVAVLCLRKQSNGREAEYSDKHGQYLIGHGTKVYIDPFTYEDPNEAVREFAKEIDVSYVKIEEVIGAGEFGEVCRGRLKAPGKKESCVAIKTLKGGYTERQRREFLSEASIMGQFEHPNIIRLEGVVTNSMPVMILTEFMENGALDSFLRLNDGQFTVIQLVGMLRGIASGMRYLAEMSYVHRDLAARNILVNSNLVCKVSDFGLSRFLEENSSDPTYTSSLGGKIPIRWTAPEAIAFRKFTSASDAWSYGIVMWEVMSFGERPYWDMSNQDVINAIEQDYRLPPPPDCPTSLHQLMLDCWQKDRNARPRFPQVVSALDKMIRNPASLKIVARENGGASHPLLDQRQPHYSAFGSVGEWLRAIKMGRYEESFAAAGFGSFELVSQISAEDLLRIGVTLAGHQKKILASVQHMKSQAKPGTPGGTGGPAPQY

Cytochrome P450 2C9 = Cytochrome P450 2C9 (Homo sapiens, UniProt P11712); test: Effect on human CYP2C9 at 10 uM; type: ADME
[13] = target: Tyrosine-protein kinase Lck (Homo sapiens, UniProt P06239); test: Inhibition of Lck (unknown origin)
Insulin receptor = Insulin receptor (Homo sapiens, UniProt P06213); test: Inhibition of Ins receptor (unknown origin)

Tyrosine-protein kinase JAK1, sequence (P23458 whole entry): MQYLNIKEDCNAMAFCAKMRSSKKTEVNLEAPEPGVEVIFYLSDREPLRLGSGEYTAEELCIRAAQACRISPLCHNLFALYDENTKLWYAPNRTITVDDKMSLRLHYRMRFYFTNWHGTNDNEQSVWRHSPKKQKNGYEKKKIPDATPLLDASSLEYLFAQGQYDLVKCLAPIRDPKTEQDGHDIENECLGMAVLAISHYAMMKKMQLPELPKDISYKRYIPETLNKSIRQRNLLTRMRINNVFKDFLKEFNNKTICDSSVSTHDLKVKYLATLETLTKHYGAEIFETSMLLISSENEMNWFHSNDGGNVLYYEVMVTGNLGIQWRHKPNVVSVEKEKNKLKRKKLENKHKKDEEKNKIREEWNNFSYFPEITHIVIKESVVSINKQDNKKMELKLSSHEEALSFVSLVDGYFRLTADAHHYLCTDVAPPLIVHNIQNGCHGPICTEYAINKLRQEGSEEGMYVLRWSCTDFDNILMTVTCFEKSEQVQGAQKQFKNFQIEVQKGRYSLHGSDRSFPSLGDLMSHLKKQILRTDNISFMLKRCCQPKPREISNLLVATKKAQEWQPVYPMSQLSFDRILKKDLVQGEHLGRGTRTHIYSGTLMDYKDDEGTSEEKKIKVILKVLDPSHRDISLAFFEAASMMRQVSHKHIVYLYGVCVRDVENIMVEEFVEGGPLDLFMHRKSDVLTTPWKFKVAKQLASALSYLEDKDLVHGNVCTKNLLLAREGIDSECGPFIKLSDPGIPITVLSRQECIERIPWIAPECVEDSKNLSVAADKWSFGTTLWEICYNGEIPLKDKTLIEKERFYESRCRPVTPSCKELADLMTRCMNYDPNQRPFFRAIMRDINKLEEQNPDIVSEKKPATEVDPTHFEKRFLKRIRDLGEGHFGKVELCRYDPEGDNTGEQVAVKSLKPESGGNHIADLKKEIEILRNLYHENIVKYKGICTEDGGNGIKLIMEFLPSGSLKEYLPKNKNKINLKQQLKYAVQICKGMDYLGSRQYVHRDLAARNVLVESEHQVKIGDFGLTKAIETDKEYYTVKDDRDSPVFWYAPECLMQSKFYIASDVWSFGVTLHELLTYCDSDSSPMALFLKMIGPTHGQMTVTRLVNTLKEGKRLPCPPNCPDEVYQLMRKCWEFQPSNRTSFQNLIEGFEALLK
Phosphatidylinositol 4,5-bisphosphate 3-kinase catalytic subunit beta isoform, sequence (P42338 whole entry, canonical isoform): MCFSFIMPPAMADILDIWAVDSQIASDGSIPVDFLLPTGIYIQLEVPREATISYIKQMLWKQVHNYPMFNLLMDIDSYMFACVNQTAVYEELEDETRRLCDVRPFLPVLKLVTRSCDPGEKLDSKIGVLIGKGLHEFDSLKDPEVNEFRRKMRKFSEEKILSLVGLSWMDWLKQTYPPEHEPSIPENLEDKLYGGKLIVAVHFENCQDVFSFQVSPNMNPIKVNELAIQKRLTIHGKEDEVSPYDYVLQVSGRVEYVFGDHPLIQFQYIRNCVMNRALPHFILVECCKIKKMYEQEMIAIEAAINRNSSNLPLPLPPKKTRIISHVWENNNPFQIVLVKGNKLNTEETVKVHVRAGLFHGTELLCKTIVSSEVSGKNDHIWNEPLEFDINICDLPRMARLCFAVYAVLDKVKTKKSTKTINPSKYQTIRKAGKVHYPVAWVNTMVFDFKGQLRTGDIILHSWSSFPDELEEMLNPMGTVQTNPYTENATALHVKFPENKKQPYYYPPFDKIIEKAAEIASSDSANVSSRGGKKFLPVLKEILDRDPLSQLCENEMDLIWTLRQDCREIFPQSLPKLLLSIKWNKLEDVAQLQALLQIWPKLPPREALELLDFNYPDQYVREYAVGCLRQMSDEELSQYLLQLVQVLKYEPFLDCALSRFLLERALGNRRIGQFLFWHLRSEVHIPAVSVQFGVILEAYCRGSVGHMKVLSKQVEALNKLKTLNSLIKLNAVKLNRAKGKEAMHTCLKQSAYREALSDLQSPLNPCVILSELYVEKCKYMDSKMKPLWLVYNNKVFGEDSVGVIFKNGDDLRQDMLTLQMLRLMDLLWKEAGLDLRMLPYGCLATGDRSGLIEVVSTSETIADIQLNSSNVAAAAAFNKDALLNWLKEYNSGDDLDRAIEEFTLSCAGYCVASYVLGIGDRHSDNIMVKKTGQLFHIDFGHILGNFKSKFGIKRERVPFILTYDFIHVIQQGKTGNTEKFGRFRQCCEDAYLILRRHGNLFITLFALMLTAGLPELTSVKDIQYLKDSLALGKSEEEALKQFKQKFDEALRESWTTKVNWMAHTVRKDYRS
Epidermal growth factor receptor, sequence (P00533 whole entry, canonical isoform): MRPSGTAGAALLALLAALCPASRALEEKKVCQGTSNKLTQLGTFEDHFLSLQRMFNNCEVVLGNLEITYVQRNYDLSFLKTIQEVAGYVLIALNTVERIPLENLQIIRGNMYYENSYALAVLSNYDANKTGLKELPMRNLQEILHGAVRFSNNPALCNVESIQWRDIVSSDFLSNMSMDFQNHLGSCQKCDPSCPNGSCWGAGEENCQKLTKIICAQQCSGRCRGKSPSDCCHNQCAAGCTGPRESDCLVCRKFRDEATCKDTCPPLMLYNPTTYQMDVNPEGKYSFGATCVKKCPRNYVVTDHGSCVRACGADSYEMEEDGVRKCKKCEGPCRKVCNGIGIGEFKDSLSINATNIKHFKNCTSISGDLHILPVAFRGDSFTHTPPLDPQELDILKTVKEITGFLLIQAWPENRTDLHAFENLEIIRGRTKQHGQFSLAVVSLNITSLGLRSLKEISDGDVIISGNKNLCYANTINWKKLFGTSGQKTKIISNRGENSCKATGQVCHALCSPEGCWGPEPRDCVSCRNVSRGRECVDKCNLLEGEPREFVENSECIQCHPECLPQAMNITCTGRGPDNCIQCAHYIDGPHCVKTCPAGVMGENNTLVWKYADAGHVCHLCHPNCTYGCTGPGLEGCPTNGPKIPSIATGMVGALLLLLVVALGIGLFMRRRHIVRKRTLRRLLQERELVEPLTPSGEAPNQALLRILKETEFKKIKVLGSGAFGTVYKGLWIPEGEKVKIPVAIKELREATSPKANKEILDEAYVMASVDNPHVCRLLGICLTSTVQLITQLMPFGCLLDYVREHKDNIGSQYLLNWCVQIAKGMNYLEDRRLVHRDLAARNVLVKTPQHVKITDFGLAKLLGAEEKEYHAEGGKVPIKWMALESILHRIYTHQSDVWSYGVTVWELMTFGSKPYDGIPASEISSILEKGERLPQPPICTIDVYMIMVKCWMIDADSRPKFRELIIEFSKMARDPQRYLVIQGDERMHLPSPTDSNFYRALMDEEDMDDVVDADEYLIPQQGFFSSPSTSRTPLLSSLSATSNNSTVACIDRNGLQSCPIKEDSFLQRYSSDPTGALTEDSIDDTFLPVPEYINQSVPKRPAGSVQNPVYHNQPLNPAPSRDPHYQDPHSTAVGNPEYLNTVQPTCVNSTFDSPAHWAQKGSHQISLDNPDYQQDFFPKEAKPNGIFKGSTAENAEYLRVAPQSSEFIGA
Insulin-like growth factor 1 receptor, sequence (P08069 31-736 limits assumed): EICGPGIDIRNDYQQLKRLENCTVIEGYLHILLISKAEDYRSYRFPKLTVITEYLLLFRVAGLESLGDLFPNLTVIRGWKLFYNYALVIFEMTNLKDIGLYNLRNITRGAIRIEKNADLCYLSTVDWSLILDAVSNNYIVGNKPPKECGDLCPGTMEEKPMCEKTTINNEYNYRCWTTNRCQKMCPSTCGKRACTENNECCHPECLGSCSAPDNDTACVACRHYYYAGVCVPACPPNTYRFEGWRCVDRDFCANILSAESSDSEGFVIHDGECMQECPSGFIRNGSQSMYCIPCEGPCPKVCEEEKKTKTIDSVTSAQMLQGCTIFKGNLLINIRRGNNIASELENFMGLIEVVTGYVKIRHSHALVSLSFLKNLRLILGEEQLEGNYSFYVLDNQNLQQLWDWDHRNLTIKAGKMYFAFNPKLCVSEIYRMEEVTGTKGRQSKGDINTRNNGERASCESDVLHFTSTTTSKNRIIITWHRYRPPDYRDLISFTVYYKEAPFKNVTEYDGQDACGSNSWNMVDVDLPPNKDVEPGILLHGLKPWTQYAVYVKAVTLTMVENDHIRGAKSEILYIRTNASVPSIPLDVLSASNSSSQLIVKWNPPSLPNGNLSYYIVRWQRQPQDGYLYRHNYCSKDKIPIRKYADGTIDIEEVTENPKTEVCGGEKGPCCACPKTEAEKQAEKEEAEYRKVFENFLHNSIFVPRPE
Insulin-like growth factor 1 receptor, sequence (P08069 741-1367 limits assumed): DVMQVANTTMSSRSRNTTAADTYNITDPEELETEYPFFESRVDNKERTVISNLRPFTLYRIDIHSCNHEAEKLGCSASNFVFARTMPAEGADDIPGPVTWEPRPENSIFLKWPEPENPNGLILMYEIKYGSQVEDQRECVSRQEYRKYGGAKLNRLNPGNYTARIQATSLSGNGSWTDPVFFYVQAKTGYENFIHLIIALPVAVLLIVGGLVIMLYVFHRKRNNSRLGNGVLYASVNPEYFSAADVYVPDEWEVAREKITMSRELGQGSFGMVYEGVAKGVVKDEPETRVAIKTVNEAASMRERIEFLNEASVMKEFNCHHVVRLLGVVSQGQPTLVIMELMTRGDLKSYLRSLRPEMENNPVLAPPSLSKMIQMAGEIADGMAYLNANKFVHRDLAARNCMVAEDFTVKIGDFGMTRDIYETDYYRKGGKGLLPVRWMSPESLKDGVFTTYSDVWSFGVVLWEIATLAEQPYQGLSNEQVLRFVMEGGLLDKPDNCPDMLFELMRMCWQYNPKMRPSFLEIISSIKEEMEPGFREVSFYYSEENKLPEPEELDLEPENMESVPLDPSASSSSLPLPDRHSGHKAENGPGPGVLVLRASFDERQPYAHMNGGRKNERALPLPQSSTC

## CCOCCOc1cccc(-c2cn([C@H]3C[C@@H](CN4CCC4)C3)c3ncnc(N)c23)c1
[1]
  IC50: 630 nM

## CC(Oc1cccc(-c2cn([C@H]3C[C@@H](CN4CCC4)C3)c3ncnc(N)c23)c1)c1ccccc1 (mixture of isomers)
[1]
  IC50: 3700 nM

## Nc1ncnc2c1c(-c1cccc(OCCOC3CCCC3)c1)cn2[C@H]1C[C@@H](CN2CCC2)C1
[1]
  IC50: 490 nM

## CCCOCCOc1cccc(-c2cn([C@H]3C[C@@H](CN4CCC4)C3)c3ncnc(N)c23)c1
[1]
  IC50: 310 nM

## Nc1ncnc2c1c(-c1cccc(OC[C@@H]3CCCO3)c1)cn2[C@H]1C[C@@H](CN2CCC2)C1
[2]
  IC50: > 9000 nM
[1]
  IC50: 80 nM
[3]
  IC50: 3600 nM
[4]
  IC50: > 10000 nM
[5]
  IC50: > 9000 nM
[6]
  IC50: > 10000 nM

## Nc1ncnc2c1c(-c1cccc(OCc3ccccc3)c1)cn2[C@H]1C[C@@H](CN2CCC2)C1
[2]
  IC50: > 9000 nM
[3]
  IC50: 130 nM
[4]
  IC50: > 10000 nM
[5]
  IC50: > 9000 nM
Liver microsome [7]
  Drug metabolism: metabolite_detected
[6]
  IC50: > 10000 nM

## CC(C)OCCOc1cccc(-c2cn([C@H]3C[C@@H](CN4CCC4)C3)c3ncnc(N)c23)c1
[1]
  IC50: 260 nM

## COCCOc1cccc(-c2cn([C@H]3C[C@@H](CN4CCC4)C3)c3ncnc(N)c23)c1
[1]
  IC50: 2000 nM

## Nc1ncnc2c1c(-c1cccc(OCC3CCCC3)c1)cn2[C@H]1C[C@@H](CN2CCC2)C1
[1]
  IC50: 840 nM

## Nc1ncnc2c1c(-c1cccc(OCC3CCC3)c1)cn2[C@H]1C[C@@H](CN2CCC2)C1
[1]
  IC50: 1900 nM

## Nc1ncnc2c1c(-c1cccc(O)c1)cn2[C@H]1C[C@@H](CN2CCC2)C1
Liver microsome [8]
  Drug metabolism: metabolite_detected

## Nc1ncnc2c1c(-c1cccc(OC[C@H]3CCCO3)c1)cn2[C@H]1C[C@@H](CN2CCC2)C1
[1]
  IC50: 110 nM

## CC(C)(C)OCCOc1cccc(-c2cn([C@H]3C[C@@H](CN4CCC4)C3)c3ncnc(N)c23)c1
[1]
  IC50: 160 nM

## Nc1ncnc2c1c(-c1cccc(OCCO)c1)cn2[C@H]1C[C@@H](CN2CCC2)C1
[1]
  IC50: 7900 nM

## CC1(C)CC[C@H](COc2cccc(-c3cn([C@H]4C[C@@H](CN5CCC5)C4)c4ncnc(N)c34)c2)O1
[1]
  IC50: 60 nM

## Nc1ncnc2c1c(-c1cccc(OC[C@H]3CCCCO3)c1)cn2[C@H]1C[C@@H](CN2CCC2)C1
[1]
  IC50: 80 nM
Liver microsome [7]
  Drug metabolism: metabolite_notdetected

## CC1(C)CC[C@@H](COc2cccc(-c3cn([C@H]4C[C@@H](CN5CCC5)C4)c4ncnc(N)c34)c2)O1
Cytochrome P450 3A4
  Activity: Not Active
[2]
  IC50: > 9000 nM
[9]
  IC50: > 10000 nM
[10]
  IC50: 970 nM
[1]
  IC50: 9 nM
Cytochrome P450 2D6
  Activity: Not Active
[4]
  IC50: > 10000 nM
[11]
  permeability: permeable
[5]
  IC50: > 9000 nM
[12]
  solubility: soluble
[6]
  IC50: > 10000 nM
Ephrin type-B receptor 4
  IC50: 690 nM
Cytochrome P450 2C9
  Activity: Not Active
[13]
  IC50: 7400 nM
Insulin receptor
  IC50: 100 nM

## Nc1ncnc2c1c(-c1cccc(OC[C@@H]3CCCCO3)c1)cn2[C@H]1C[C@@H](CN2CCC2)C1
[1]
  IC50: 130 nM

## CC(C)CCOCCOc1cccc(-c2cn([C@H]3C[C@@H](CN4CCC4)C3)c3ncnc(N)c23)c1
[1]
  IC50: 370 nM

## Nc1ncnc2c1c(-c1cccc(OCC3CCCCC3)c1)cn2[C@H]1C[C@@H](CN2CCC2)C1
[1]
  IC50: 550 nM
